Data taken from patent US5849888A, “Azoamide compound” (Wako Pure Chemical Industries, Ltd., priority 1996, dated 1998).

Legend:
[1] = Half-life test (thermal decomposition in ethyl benzene, 10-hour half life temperature); assay type: physicochemical; settings: 1% (w/w) solution in ethyl benzene; calculated by Arrhenius equation
Method: Experiment 1. Half-life test
(§1) 1 Percent (w/w) solution of each azoamide compound obtained in Examples 1 to 7 in ethyl benzene is prepared. A concentration of the azoamide compound is measured in a thermostat at pre-determined interval by 1 hour unit and a coefficient of decomposition rate constant at each temperature is obtained and then the temperature for 10 -hour half life is calculated on the basis of the coefficient by Arrhenius equation.

[2] = Polymerization of styrene at 110° C. with azoamide initiator (Experiment 2); settings: 4×10^-4 M initiator
Method: (§2) 5 ml of styrene containing a 4×10^-4 M of azoamide compound which is obtained example 1, 3, or 6 were placed in individual glass tubes. After deairing, the tubes were sealed under reduced pressure. Each tube was placed into the thermostat adjusted at 110° C. to carry out the polymerization. The tube was took out from the thermostat after predetermined time, cooled under ice water immediately to stop polymerization. The reaction solution was poured into methanol to deposit and precipitate the obtained polymer. The precipitate was recovered by filtration, and dried at 60° C. under reduced pressure for 8 hours. The weight of the polymer obtained was measured and the conversion was calculated.

[3] = Decomposition rate constant at 110° C. (Table 3); assay type: physicochemical
Method: as §1, §2

[4] = Solubility of azoamide compound in 100 g of solvent at 25° C. (Table 1); assay type: physicochemical; settings: for Solubility in ethyl acetate: in 100 g of ethyl acetate; for Solubility in toluene: in 100 g of toluene
Description: *^) Solubility of each azoamide compound in 100 g of the solvent at
A polymerization initiator having solubility of generally 2% or more, preferably 5% or more has high applicability, and it can be found from the above Table 1 that any of the azoamide compounds of the present invention is suitable for a polymerization reaction using an organic solvent.

[5] = in words, cited from earlier work; for solubility in an organic solvent: organic solvent used in solution polymerization of an oily soluble monomer
[6] = listed as 2,2'-azobis (N-methyl-2-methyl propionamide)

Row | temperature for 10-hour half life [1] | decomposition rate constant [3] | Solubility in ethyl acetate [4] | Solubility in toluene [4] | Solubility in ethyl acetate [4, 6] | Solubility in toluene [4, 6] | SMILES | Conversion ([2]; polymerization time 1 h) | Conversion ([2]; polymerization time 2 h) | Conversion ([2]; polymerization time 3 h) | Conversion ([2]; polymerization time 4 h) | Conversion ([2]; polymerization time 6 h) | Conversion ([2]; polymerization time 8 h) | solubility in water [5] | solubility in an organic solvent [5]
1 | 110.6 °C | 1.79e-05 s⁻¹ | easily soluble | easily soluble |  |  | CCCCNC(=O)C(C)(C)N=NC(C)(C)C(=O)NCCCC [Example 3, 2,2'-azobis (N-butyl-2-methyl propionamide)] | 9.2% | 20.8% | 30.8% | 41.0% | 61.2% | 82.9% |  | 
2 | 112.0 °C |  | 14.0 g | 8.0 g |  |  | CC(C)CNC(=O)C(C)(C)N=NC(C)(C)C(=O)NCC(C)C [Example 2, 2,2'-azobis [N-(2-methylpropyl)-2-methylpropionamide]] |  |  |  |  |  |  |  | 
3 |  |  |  |  |  |  | CC(C)(N=NC(C)(C)C(N)=O)C(N)=O [2,2'-azobis (2-methylpropionamide)] |  |  |  |  |  |  | water-soluble | poor soluble
4 | 111.2 °C |  | 11.0 g | 5.0 g |  |  | CC(C)NC(=O)C(C)(C)N=NC(C)(C)C(=O)NC(C)C [Example 4, 2,2'-azobis [N-(2-methylethyl)-2-methylpropionamide]] |  |  |  |  |  |  |  | 
5 | 109.6 °C |  | 11.0 g | 4.0 g |  |  | CCNC(=O)C(C)(C)N=NC(C)(C)C(=O)NCC [Example 7, 2,2'-azobis (N-ethyl-2-methyl propionamide)] |  |  |  |  |  |  |  | 
6 | 111.6 °C |  | easily soluble | easily soluble |  |  | CCCCCCNC(=O)C(C)(C)N=NC(C)(C)C(=O)NCCCCCC [Example 5, 2,2'-azobis (N-hexyl-2-methyl propionamide)] |  |  |  |  |  |  |  | 
7 |  |  |  |  |  |  | CC(C)(N=NC(C)(C)C(=O)NCO)C(=O)NCO [2,2'-azobis [2-methyl-N-(hydroxymethyl)-propionamide]] |  |  |  |  |  |  | water-soluble | poor soluble
8 | 111.0 °C | 1.72e-05 s⁻¹ | 3.5 g | 5.5 g |  |  | CC(C)(N=NC(C)(C)C(=O)NC1CCCCC1)C(=O)NC1CCCCC1 [Example 1, 2,2'-azobis (N-cyclohexyl-2-methyl propionamide)] | 8.7% | 20.5% | 30.8% | 41.2% | 62.5% | 81.0% |  | 
9 |  |  | 1.2 g | ≤ 0.5 g | low solubility | low solubility | CNC(=O)C(C)(C)N=NC(C)(C)C(=O)NC [Comparative example, 2,2'-azobis (N-methyl-2-methyl propionamide), reference compound] |  |  |  |  |  |  | water-soluble | poor soluble
10 | 110.8 °C | 1.74e-05 s⁻¹ | easily soluble | easily soluble |  |  | CCCNC(=O)C(C)(C)N=NC(C)(C)C(=O)NCCC [Example 6, 2,2'-azobis (N-propyl-2-methyl propionamide)] | 9.0% | 20.0% | 31.2% | 41.0% | 62.4% | 83.6% |  | 
